Tests used:
VEGFA gene = assay: qRT-PCR of hypoxia-induced VEGFA transcription in A549 cells; format: cell-based; details: hypoxia (GasPak EZ Anaerobe Pouch), real-time qRT-PCR
Method: (§1) Hypoxia was mimicked by O2 deprivation in a GasPak™ EZ Anaerobe Pouch System (BD). […] Error bars are ±s.e.m. of four independent experiments. *** P<0.001, t-test.
(§2) A549 cells, a non-small cell lung adenocarcinoma cell line, were used. It has been reported that A549 cell line produces robust upregulation of key HIF-inducible genes under hypoxia conditions. […] A549 cells were maintained in 2% serum followed by treating cells with compound or control in the media with 0.2% serum for 48 h.
(§3) mRNA levels of three HIF-1α inducible genes: VEGF, c-Met and […] in A549 cells after treatment with OOPS were measured. Data from qRT-PCR experiments showing mRNA levels of three HIF-1α inducible genes, VEGF, c-Met and LOX in A549 after treatment of the cells in a medium with OOPS is described in FIGS. 1-3. Hypoxia was mimicked by O2 deprivation in a GasPak™ EZ Anaerobe Pouch System (BD). Error bars are ±s.e.m for the experiments performed in quadruplicate. Error bars are ±s.e.m. of experiments performed in triplicate. *** P<0.001, ** P<0.01, t test.

c-Met gene = assay: qRT-PCR of hypoxia-induced c-Met transcription in A549 cells; format: cell-based; details: hypoxia (GasPak EZ Anaerobe Pouch), real-time qRT-PCR
Method: as §1, §2, §3

MCF7 cells = assay: gene expression profiling with Affymetrix Human Gene ST 1.0 Arrays; format: cell-based; details: 10 μM, hypoxia (GasPak EZ pouch), |fold-change|>2.0, P<0.005, set of 3328 transcripts
Method: (A) Agglomerative hierarchical clustering of expression changes of the 3328 transcripts induced or repressed 2-fold or more (one-way ANOVA, P<0.005) under hypoxia mimicked with GasPak EZ pouch and the four specified conditions: -, no treatment; 1, OOP 1 (10 iuM); 2, OOP 2 (10 μM), 4, OOP 4 (10 μM). Clustering was based on a Pearson centered correlation of intensity ratios for each treatment compared to hypoxic cells (controls) using average-linkage as a distance. Of this hypoxia-induced set, 148 were induced and 449 were inhibited by OOP 1, whereas 217 were induced and 371 inhibited by OOP 2 (|fold-change|>2.0, P<0.005). Treatment with control OOP 4 induced 91 and inhibited 82 transcripts (|fold-change|>2.0, P<0.005). (B) Clustering of expression changes of the 571 transcripts induced or repressed 4-fold or more (P<0.005) by hypoxia mimicked with GasPak EZ pouch under the designated treatment conditions. Clustering parameters were the same as in (A). All reported treatments are error-weighted averages from three experiments. […] Numbers inside the intersections represent hypoxia-induced transcripts affected by the treatments.
Target proteins p300 and CBP are pleiotropic multidomain coactivators, and their CH1 regions contain binding sites for multiple transcription factors. To determine nonspecific genome-wide effects of OOPS, in vitro gene expression profiling experiments were conducted with OOPS using Affymetrix Human Gene ST 1.0 Arrays containing oligonucleotide sequences representing 28,869 transcripts. In order to interrogate cellular genome for global effects, MCF7 cells were treated with OOPS.

[1] = system: HIF1α-inducible promoter activity; assay: luciferase-based hypoxia-inducible promoter activity assay, MDA-MB-231-HRE-Luc cell line; details: MDA-MB-231-HRE-Luc cells, various concentrations
Method: Results from the luciferase-based promoter activity assay with MDA-MB-231-HRE-Luc cell line treated with OOP 1 at various concentration. Hypoxia was mimicked by O2 deprivation in a GasPak™ EZ Anaerobe Pouch System (BD). Error bars represent ±s.e.m. of experiments performed in triplicates. * P<0.05, ** P<0.01, t-test, relative to sample Vehicle Hypoxia.
An analysis of hypoxia-inducible promoter activity was performed using luciferase assays in a MDA-MB-231 cell line stably transfected with hRE-hCMV-Luc plasmid. Cell lines were treated with OOP compounds at various concentrations. Hypoxia was mimicked by O2 deprivation in a GasPak™ EZ Anaerobe Pouch System (BD). Error bars represent ±s.e.m. of experiments performed in triplicates.

LOX gene = assay: qRT-PCR of hypoxia-induced LOX transcription in A549 cells; format: cell-based; details: hypoxia (GasPak EZ Anaerobe Pouch), real-time qRT-PCR
Method: as §1, §2, §3

HIF-1α = assay: Western blot of intracellular HIF-1α levels in A549 cells; format: cell-based; details: A549 whole cell extract, 24 h incubation, hypoxia for last 18 h
Method: Western blot analysis of HIF-1α levels (A) with β-actin used as a control (B) in the whole cell extract of A549 cells. Cells were incubated for a total of 24 hours with OOP 2. After 6 h, hypoxia was mimicked by O2 deprivation in a GasPak™ EZ Anaerobe Pouch System (BD) for an additional 18 h.
(§4) The effect of OOPS on HIF-1α and c-met protein levels was studied. A549 cells were treated with OOPS. Cells were incubated for a total of 24 hours with OOP 2. After 6 h, hypoxia was mimicked by O2 deprivation in a GasPak™ EZ Anaerobe Pouch System (BD) for an additional 18 hours.

c-Met = assay: Western blot of intracellular c-Met levels in A549 cells; format: cell-based; details: A549 whole cell extract, 24 h incubation, hypoxia for last 18 h
Method: Western blot analysis of c-Met levels (A) with β-actin used as a control (B) in the whole cell extract of A549 cells. Cells were incubated for a total of 24 hours with OOP 2. After 6 h, hypoxia was mimicked by O2 deprivation in a GasPak™ EZ Anaerobe Pouch System (BD) for an additional 18 h.
as §4

[2] = maximum tolerated dose (MTD) study; format: in vivo; details: Balb/C mice, intraperitoneal injection every 48 hours, up to 100 mg/kg
Method: Balb/C mice were used in an MTD experiment. 1 mouse was present in the vehicle group and 3 mice in OOP 2-treated group. Food and water ad libitum was provided as needed and according to the protocol. OOP 2 was administered by Intraperitoneal (IP) injection. OOP 2 was dissolved in sterile PBS at a concentration range between […]. Volume administered was about 100-150 μl every 48 hours. No toxicity was seen even at 100 mg/kg of OOP 2, at which point the experiment was terminated.

[3] = MTT cytotoxicity assay in MCF7 cells; format: cell-based; details: human, MCF7 breast cancer cells, 1 μM to 60 μM
Method: One potential issue that arises with the use of transcriptional inhibitors is their cytotoxicity. Therefore, careful assessment of the cytotoxicity is important to evaluate nonspecific, global effects on transcriptional machinery. Cytotoxicity experiments were performed in order to obtain the EC50 values of OOPS in an MCF7 breast cancer cell line.
The cells were treated with different concentrations of compound for 48 hours in serum free F-12K medium. The cells are plated into 96-well dishes (Greiner) at a density of 5,000-10,000 cells/well in 200 μl of the cell culture media prepared as recommended by the vendor (ATCC). The plates are then placed into the incubator (37° C., 5% CO2) until the desired confluence is reached (in ca. 24-72 hours). Next, the media in all wells is replaced with the solution of the OOPS compound (150 μl for 48 hour study, 200 μl for 72 hour study) in the appropriate cell culture medium. The plates are then incubated for 48 hours (37° C., 5% CO2). […] The resulting purple precipitate is then dissolved in DMSO (200 μl/well) and the absorption of the metabolite product (purple formazan) in each well is measured at 562 nm using microplate reader (BioTek Synergy II). The absorption values are plotted against the concentration of the compound and GI50 is determined.

Structure (SMILES) | expression levels of VEGFA gene (mRNA) (VEGFA gene) | expression levels of c-Met gene (mRNA) (c-Met gene) | number of transcripts induced, of the hypoxia-induced set (MCF7 cells) | number of transcripts inhibited, of the hypoxia-induced set (MCF7 cells) | HIF1α-inducible promoter activity (luciferase) [1] | expression levels of LOX gene (mRNA) (LOX gene) | intracellular levels of HIF-1α (Western blot) (HIF-1α) | intracellular levels of c-Met (Western blot) (c-Met) | toxicity in MTD study [2] | EC50 at 48 h [3]
C[C@@H]1NCCN([C@@H](C)C(=O)N2CCN([C@@H](C)C(N)=O)C(=O)[C@@H]2C)C1=O [OOP 4] | no inhibitory activity | no inhibitory activity | 91 | 82 | does not affect HIF1α-inducible promoter activity | no inhibitory activity |  |  |  | 
CC(C)C[C@H](N)C(=O)N1CCN([C@@H](C)C(=O)N2CCN([C@@H](C)C(N)=O)C(=O)[C@@H]2CC(C)C)C(=O)[C@@H]1CCCNC(=N)N [OOP 3] |  |  |  |  | reduces HIF1α-inducible promoter activity in vitro in a dose-dependent manner |  |  |  |  | 
CC(C)C[C@@H]1NCCN([C@@H](CC(C)C)C(=O)N2CCN([C@@H](CCC(N)=O)C(N)=O)C(=O)[C@@H]2C)C1=O [OOP 2] | reduced expression levels of VEGFA gene | reduced expression levels of c-Met gene | 217 | 371 | reduces HIF1α-inducible promoter activity in vitro in a dose-dependent manner | reduced expression levels of LOX gene | does not decrease the intracellular levels of HIF-1α | decreases intracellular levels of c-Met | No toxicity | 30 µM
CC(C)C[C@@H]1NCCN([C@@H](CC(C)C)C(=O)N2CCN([C@@H](C)C(N)=O)C(=O)[C@@H]2C)C1=O [OOP 1] |  |  | 148 | 449 | reduces HIF1α-inducible promoter activity in vitro in a dose-dependent manner |  |  |  |  | 30 µM
